Laboratory results taken from publication PMC8954214, “Preparation, Identification, Molecular Docking Study and Protective Function on HUVECs of Novel ACE Inhibitory Peptides from Protein Hydrolysate of Skipjack Tuna Muscle” (Marine Drugs, 2022).
Read-outs that look alike come from different tables or passages of the source. Values belong to the molecule of their own block, whether it stands above or below them. Where a SMILES comes first, the peptide text is derived from it.

What was measured:
[1] = target: T1, ACE (Oryctolagus cuniculus, UniProt P12822); settings: cited from earlier work
T1 construct: purchased Sigma-Aldrich (Shanghai) Trading Co., Ltd. A6778
T1 sequence (P12822 34-1310): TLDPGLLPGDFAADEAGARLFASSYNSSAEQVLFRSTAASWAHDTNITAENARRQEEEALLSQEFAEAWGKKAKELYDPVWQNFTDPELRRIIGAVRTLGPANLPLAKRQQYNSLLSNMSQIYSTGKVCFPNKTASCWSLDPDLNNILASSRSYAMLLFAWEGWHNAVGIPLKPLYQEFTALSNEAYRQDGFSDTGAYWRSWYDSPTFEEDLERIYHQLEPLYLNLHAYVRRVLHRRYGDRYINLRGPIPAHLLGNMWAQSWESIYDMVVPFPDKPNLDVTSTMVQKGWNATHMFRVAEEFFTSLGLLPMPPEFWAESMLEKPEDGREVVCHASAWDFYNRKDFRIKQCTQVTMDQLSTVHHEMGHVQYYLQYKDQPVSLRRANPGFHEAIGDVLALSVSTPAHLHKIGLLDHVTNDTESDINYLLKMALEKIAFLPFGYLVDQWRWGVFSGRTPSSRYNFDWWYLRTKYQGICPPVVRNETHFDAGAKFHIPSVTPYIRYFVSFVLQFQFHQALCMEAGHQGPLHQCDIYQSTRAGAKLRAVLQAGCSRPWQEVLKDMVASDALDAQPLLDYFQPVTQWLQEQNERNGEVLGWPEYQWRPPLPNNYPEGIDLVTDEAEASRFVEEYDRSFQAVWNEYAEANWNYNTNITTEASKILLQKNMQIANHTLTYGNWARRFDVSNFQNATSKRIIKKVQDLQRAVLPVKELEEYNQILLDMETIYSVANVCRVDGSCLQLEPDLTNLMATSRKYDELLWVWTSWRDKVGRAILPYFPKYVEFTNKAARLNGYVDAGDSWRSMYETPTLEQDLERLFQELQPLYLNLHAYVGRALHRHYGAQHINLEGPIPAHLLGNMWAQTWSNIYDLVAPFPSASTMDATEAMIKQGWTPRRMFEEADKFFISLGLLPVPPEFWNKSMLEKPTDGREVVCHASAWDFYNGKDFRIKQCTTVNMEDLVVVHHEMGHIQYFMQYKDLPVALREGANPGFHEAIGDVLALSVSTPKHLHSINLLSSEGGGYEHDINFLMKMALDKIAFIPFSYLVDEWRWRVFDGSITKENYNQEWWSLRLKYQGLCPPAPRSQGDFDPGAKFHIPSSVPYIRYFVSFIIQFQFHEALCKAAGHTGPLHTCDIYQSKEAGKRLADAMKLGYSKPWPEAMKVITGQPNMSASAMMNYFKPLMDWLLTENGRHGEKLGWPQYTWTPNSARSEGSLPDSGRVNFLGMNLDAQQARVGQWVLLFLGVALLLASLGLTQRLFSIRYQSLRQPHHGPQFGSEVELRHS
Description: Among these peptides, ACEi peptides represent a promising alternative to synthetic drugs to control hypertension. For instance, canary seed peptides (CSP) have great potential as anti-hypertensive and anti-obesity agents due to their inhibition activity on ACE and pancreatic lipase, and their non-competitive inhibitory activity was due to their destabilization of the transition state and Zn(II) coordination in ACE [13]. […] Auwal et al. illustrated that branched aliphatic or dicarboxylic amino acids (Val, Ala, Ile, and Leu) at the N-terminus could strengthen ACEi ability of peptides. Then, Val residue at the N-terminus of TMAP2 could improve its ACEi ability. […] Therefore, Ser residue, especially its hydroxyl group, should play a vital effect in the ACEi capability of ...

[2] = target: T1, ACE; design: method as in 3 sources, ref 47 = [47]; doi:10.1016/j.lwt.2016.08.047; 47. Wang X. Chen H. Fu X. Li S. Wei J. A novel antioxidant and ACE inhibitory peptide from rice bran protein: Biochemical characterization and molecular docking study LWT-Food Sci.Technol. 2017 75 93 ||| ref 12 = [12]; PMID 31353484; doi:10.1111/jfbc.12572; 12. Fan H. Liao W. Wu J. Molecular interactions, bioavailability, and cellular mechanisms of angiotensin-converting enzyme inhibitory peptides J. Food Biochem. 2019 43 e12572 10.1111/jfbc.12572 313534 ||| ref 51 = [51]; PMID 28873590; doi:10.1016/j.foodchem.2017.06.112; 51. Abdelhedi O. Nasri R. Mora L. Jridi M. Toldra F. Nasri M. In silico analysis and molecular docking study of angiotensin I-converting enzyme inhibitory peptides from smooth-hound viscera protein hy; settings: docking; cited from earlier work
[3] = tested on: HUVECs; assay: ET-1 secretion of HUVECs; format: cell-based, human; settings: 24 h; for ET-1 secretion: control 118.68 ± 0.53
Description: Skipjack tuna (K. pelamis) muscle was provided by Ningbo Today Food Co., Ltd (China). Sephadex G-25 resins and NO assay kit (Nitrate reductase approach, A012-1) were purchased from Nanjing Jiancheng Bioengineering Institute (China). ET-1 ELISA Kit (HM10108) was purchased from Shanghai Qiaodu Biotechnology Co. Ltd. (China).Trypsase (≥20,000 U/g), pepsase (≥500,000 U/g), papain (≥400,000 U/g), ACE (A6778) and N-[3-(2-Furyl) acryloyl]-Phe-Gly-Gly (FAPGG, F713) were purchased from Sigma-Aldrich (Shanghai) Trading Co., Ltd. (China). […] ACEi Peptides of (TMAP1-TMAP6) with purity higher than 98% were synthesized in Shanghai Apeptide Co. Ltd. (China).
The NO and ET-1 contents of HUVECs were determined after a 24 h treatment of ACEi peptides. […] NO and ET-1 production in treated cells were measured by employing human NO and ET-1 assay kit as manufactures’ protocol, separately.

[4] = tested on: HUVECs; assay: NO production in HUVECs; format: cell-based, human; settings: 24 h; for NO level: control 34.41 ± 1.27
[5] = tested on: ACE N-domain; design: method as in PMID 33340899; settings: docking; cited from earlier work
[6] = tested on: ACE C-domain; design: method as in PMID 33340899; settings: docking; cited from earlier work
[7] = target: T2, angiotensin-I-converting enzyme (ACE) (UniProt P12822)
T2 sequence: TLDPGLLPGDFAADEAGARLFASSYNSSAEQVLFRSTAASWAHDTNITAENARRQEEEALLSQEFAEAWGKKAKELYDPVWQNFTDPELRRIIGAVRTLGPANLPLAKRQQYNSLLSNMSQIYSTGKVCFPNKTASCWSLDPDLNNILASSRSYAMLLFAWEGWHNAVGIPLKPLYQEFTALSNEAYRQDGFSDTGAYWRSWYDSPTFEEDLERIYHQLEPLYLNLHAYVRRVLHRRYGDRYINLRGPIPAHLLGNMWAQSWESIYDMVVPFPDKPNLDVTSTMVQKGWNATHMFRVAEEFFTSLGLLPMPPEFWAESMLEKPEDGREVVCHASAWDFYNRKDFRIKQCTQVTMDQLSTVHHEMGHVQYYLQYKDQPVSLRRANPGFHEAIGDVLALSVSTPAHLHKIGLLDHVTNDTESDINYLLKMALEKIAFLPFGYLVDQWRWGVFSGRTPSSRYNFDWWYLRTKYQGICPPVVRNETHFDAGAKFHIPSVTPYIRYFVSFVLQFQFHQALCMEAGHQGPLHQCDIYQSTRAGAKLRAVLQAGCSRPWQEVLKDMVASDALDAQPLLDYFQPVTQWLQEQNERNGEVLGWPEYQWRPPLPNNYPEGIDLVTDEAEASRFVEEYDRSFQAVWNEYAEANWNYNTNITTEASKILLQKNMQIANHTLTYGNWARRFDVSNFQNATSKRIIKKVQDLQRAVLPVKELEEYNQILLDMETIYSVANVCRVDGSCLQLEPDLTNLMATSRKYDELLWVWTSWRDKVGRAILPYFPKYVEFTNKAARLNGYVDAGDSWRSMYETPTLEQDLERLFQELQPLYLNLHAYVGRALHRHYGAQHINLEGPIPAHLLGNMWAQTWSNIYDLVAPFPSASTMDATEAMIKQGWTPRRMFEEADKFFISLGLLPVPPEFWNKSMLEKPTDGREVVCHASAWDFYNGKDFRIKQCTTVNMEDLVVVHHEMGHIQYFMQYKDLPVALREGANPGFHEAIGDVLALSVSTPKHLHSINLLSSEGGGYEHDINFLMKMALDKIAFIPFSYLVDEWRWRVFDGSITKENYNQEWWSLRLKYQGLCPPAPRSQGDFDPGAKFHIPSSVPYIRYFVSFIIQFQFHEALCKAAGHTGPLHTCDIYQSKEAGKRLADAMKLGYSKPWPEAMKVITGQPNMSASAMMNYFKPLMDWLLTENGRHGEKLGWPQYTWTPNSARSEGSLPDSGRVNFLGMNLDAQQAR

Molecule: MVGSAPGVL [ACEi peptide from skate]
- IC50 ([1]; skate peptides): 3.09 µM

Molecule: VKPLPQSG [larger peptide composed of 7–11 amino acid residues]
- interaction with ACE channel / active site [2]: showed low interaction scores

Molecule: TTMYPGIA [larger peptide composed of 7–11 amino acid residues]
- interaction with ACE channel / active site [2]: showed low interaction scores

Molecule: HWTTQR [ACEi peptide from seaweed pipefish]
- IC50 ([1]; seaweed pipefish peptide): 1440 µM

Molecule: GPAGPRGPAG [larger peptide composed of 7–11 amino acid residues]
- interaction with ACE channel / active site [2]: showed low interaction scores

Molecule: N[C@@H](CO)C(=O)N1CCC[C@H]1C(=O)O [TMAP1, Ser-Pro] (H-Ser-Pro-OH)
- ET-1 secretion with NE ([3]; 200 μM peptide with NE (0.5 μM), NE alone 140.23 ± 5.81, p < 0.01): 114.08 ± 5.82 pg/mL
- ET-1 secretion ([3]; 400 μM): 94.86 ± 0.39 pg/mL
- ET-1 secretion vs control group ([3]; tested concentrations (100–400 μM), p < 0.001 or p < 0.01): decreased
- reversal of NE-reduced NO content ([4]; 200 μM peptide with NE (0.5 μM), p < 0.001 vs NE): partially offset
- NO level ([4]; 400 μM, p < 0.001): 57.25 ± 2.31 μmol/gprot
- NO level vs control group ([4]; 100, 200 and 400 μM, p < 0.001): significantly increased

Molecule: ALPMHIR [larger peptide composed of 7–11 amino acid residues]
- interaction with ACE channel / active site [2]: showed low interaction scores

Molecule: LVLL [literature peptide docked to ACE]
- N-domain affinity [5]: -7.5 kcal/mol
- C-domain affinity [6]: -8.6 kcal/mol

- IC50 of ACE inhibitory (ACEi) activity; enzyme assay with FAPGG as substrate, Tris-HCl 50 mM pH 8.3, 300 mM NaCl, 37 °C, product measured by HPLC [7]: 0.06 mg/mL
Molecule: Ser-Pro (SP) (peptide)

Molecule: EVLIQ [ACEi peptide from stone fish]
- IC50 ([1]; stone fish peptides): 1440 µM

Molecule: C[C@H](CS)C(=O)N1CCC[C@H]1C(=O)O [Cap, captopril]
- ET-1 secretion ([3]; 0.5 μM Cap, p < 0.001): 84.16 ± 1.18 pg/mL
- NO level ([4]; Cap positive control (1 μM per method), p < 0.001): 65.96 ± 1.83 μmol/gprot

Molecule: LGPLGHQ [ACEi peptide from skate]
- IC50 ([1]; skate peptides): 4.22 µM

Molecule: SPRCR [ACEi peptide with Ser residue]
- IC50 [1]: 41 µM

Molecule: VSQLTR [ACEi peptide with Ser residue]
- IC50 [1]: 105 µM

Molecule: YVVF [literature peptide docked to ACE]
- N-domain affinity [5]: -8.8 kcal/mol
- C-domain affinity [6]: -9.8 kcal/mol

Molecule: LAPPTM [ACEi peptide from stone fish]
- IC50 ([1]; stone fish peptides): 1310 µM

- IC50 of ACE inhibitory (ACEi) activity; enzyme assay with FAPGG as substrate, Tris-HCl 50 mM pH 8.3, 300 mM NaCl, 37 °C, product measured by HPLC [7]: 2.18 mg/mL
Molecule: Phe-Glu-Met (FEM) (peptide)

Molecule: NC[C@H](O)c1ccc(O)c(O)c1 [NE, norepinephrine]
- ET-1 secretion ([3]; NE 0.5 μM, p < 0.01): 140.23 ± 5.81 pg/mL
- NO level ([4]; NE 0.5 μM, p < 0.001): 24.25 ± 0.63 μmol/gprot

Molecule: AVVPPSDKM [larger peptide composed of 7–11 amino acid residues]
- interaction with ACE channel / active site [2]: showed low interaction scores

Molecule: EHPVL [ACEi peptide from stone fish]
- IC50 ([1]; stone fish peptides): 1680 µM

- IC50 of ACE inhibitory (ACEi) activity; enzyme assay with FAPGG as substrate, Tris-HCl 50 mM pH 8.3, 300 mM NaCl, 37 °C, product measured by HPLC [7]: 0.8 mg/mL
Molecule: Tyr-Glu (YE) (peptide)

Molecule: AGPPGSDGQPGA [ACEi peptide from lizardfish]
- IC50 ([1]; lizardfish peptide): 544 µg/mL

- IC50 of ACE inhibitory (ACEi) activity; enzyme assay with FAPGG as substrate, Tris-HCl 50 mM pH 8.3, 300 mM NaCl, 37 °C, product measured by HPLC [7]: 0.76 mg/mL
B1: Phe-Trp-Arg-Val (FWRV) (peptide)
peptide: FWRV

- IC50 of ACE inhibitory (ACEi) activity; enzyme assay with FAPGG as substrate, Tris-HCl 50 mM pH 8.3, 300 mM NaCl, 37 °C, product measured by HPLC [7]: 0.9 mg/mL
B2: Val-His-Gly-Val-Val (VHGVV) (peptide)
peptide: VHGVV

- IC50 of ACE inhibitory (ACEi) activity; enzyme assay with FAPGG as substrate, Tris-HCl 50 mM pH 8.3, 300 mM NaCl, 37 °C, product measured by HPLC [7]: 0.28 mg/mL
B3: Val-Asp-Arg-Tyr-Phe (VDRYF) (peptide)
peptide: VDRYF
